Where no end group is shown, it is not given here.
Legend:
Mff-Drp1 interaction = experiment: Co-immunoprecipitation of recombinant Drp1 with Mff; format: binding, human; details: 1 µM P259, 2 hours at 4 °C, 200 ng Drp1, 200 ng adaptor, RIPA buffer; representative blot of two independent experiments
Source text: Figure 1 Rational peptide design identifies a novel inhibitor of the Mff-Drp1 protein-protein interaction. (a) A scheme of the rationale behind the inhibitor design. […] Surface and ribbon diagrams of Drp1 structure (PDB, 4BEJ) with the GTPase, bundle signaling element (BSE), and stalk domains highlighted. (d) A heatmap representing sequence conservation of human proteins that contain a region similar to P259. Sequence conservation corresponds to the number of residues similar/identical to P259 from each sequence. […] The obtained graph is of the mean standardized response and ± s.e. as a function of time for n = 3 individual experiments, with 3 technical replicates each. […]
Protein binding to the surface was obtained through current measurements during a voltage sweep by a potentiostat. […] After calibration with 30 µL RIPA buffer for 3 minutes, […] of 100 nM protein was incubated over the surface for 3 minutes as sensor response w as measured. Disso ciation was measured by re-applying 30 µL of RIPA buffer. […]
The standardized response value was calculated by the following equation: […]
KD values were subsequently calculated using the binding and dissociation curves and the analysis software provided by the manufacturer (Nanomedical Diagnostics). […]
Protein content was measured using Bradford protein assay dye (Bio-Rad, CA, USA) and subsequently standardized. […]

primary cortical neurons = experiment: Mitochondrial membrane potential (TMRM), primary cortical neurons; format: cell-based, rat; details: overnight treatment; n = 3, with 3 replicates
Method: Bottom, quantification of the form factor (degree of branching) and aspect ratio (major/minor axis length). At least 10,000 mitochondrial fragments were analyzed for each condition. Mitochondrial reactive oxygen species production (MitoSox Red) (b) and membrane potential (TMRM) (c) after overnight treatment with indicated concentrations of peptide (n = 3, with 3 replicates). […] Overlay of live microscopy imaging at time 0 (green) and 150 (red) seconds. […] An estimation of the % mobile mitochondria from the Pearson coefficient of each set of images. Data are mean ± s.e.
Following treatment, cells were washed with treatment media.
The Cy5 filter was used to autofocus on the mitochondria plane. Nuclei were imaged with a DAPI filter and the mitoROS (MitoSox) or membrane potential (TMRM) image was acquired with a TRITC filter. […] MitoROS was calculated as the average MitoSox signal per cell. The mitochondrial membrane potential was calculated as the average TMRM signal in the mitochondrial mask.
Mitochondrial reactive oxygen species determination […]
and 1% penicillin-streptomycin solution (Corning, NY, USA). Primary cortical neurons were treated with increasing concentrations of peptides in NbActiv1 media. HD Patient- and adult- […]
and without phenol red. […] After incubation
HEPES, and without phenol red. […]
calculated as the average MitoSox signal per cell. […]

YGRKKRRQRRRGSGIIQLPEIVVV-NH2 (C-terminus assumed) [P259]
Mff binding to co-immunoprecipitated recombinant Drp1 (Mff-Drp1 interaction): abolished Mff binding
mitochondrial membrane potential (primary cortical neurons): decreased membrane potential

Reference: publication PMC6145916, “Interaction of mitochondrial fission factor with dynamin related protein 1 governs physiological mitochondrial function in vivo” (Scientific Reports, 2018)
